Results from patent publication US12679878B2, “CRF2 receptor agonists and their use in therapy” (SANOFI, priority 2020, dated 2026).
Where two headings read alike, the source gives them in different places. Starred links: 1 amine or outer side, 2 acyl side, 3 side chain; linkers in the order of their positions; H or OH if unused. Non-standard residues stand in square brackets, D forms with d. Residues, ends and D or L forms follow the SMILES beside them. Groups on a side chain read outwards from the residue. *: point of attachment. C20 diacid = O=C(O)CCCCCCCCCCCCCCCCCCC(=O)*; C18 diacid = O=C(O)CCCCCCCCCCCCCCCCC(=O)*; γGlu = O=C(O)[C@H](CCC(=O)[*:2])N[*:1]; AEEA = NCCOCCOCC(=O)O; Aib = CC(C)(N)C(=O)O

Legend:
human CRF2α receptor = target: T1, human CRF2α receptor (Homo sapiens, UniProt Q13324); assay: cAMP agonism at human CRF2 α receptor in TeloHEAC cells (Example 7); format: cell-based; conditions: cAMP HTRF, TeloHEAC cells stably expressing human CRF2 α
T1 construct: expressed in transfected cells; host or cells: TeloHEAC
T1 sequence (Q13324 1-411): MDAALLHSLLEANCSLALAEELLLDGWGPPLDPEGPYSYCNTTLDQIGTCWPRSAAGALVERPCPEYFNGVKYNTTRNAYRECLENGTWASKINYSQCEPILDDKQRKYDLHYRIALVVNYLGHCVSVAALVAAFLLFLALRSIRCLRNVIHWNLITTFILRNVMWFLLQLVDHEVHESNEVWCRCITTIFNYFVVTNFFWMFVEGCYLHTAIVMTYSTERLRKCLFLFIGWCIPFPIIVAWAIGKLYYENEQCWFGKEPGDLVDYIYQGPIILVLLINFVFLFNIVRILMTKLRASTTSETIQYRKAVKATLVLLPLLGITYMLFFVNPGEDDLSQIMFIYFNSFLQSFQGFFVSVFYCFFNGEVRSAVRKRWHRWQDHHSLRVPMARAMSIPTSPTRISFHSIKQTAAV
Outline: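 HTRF ratio 665/620 nm, read 1 h after lysis reagents, reports cAMP. Cells: thawed stocks, 2000/well, 30 min RT with compound in HBSS, 20 mM HEPES, 0 or 0.1% HSA, 2 mM IBMX. Activity normalised to UCN2 1000 nM = 100%; EC50 from half-maximal activation.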

rat CRF2R α receptor = assay: cAMP agonism at rat CRF2R α receptor in A7R5 rat aortic smooth muscle cells (Example 8); format: cell-based; conditions: cAMP HTRF, A7R5 rat aortic smooth muscle cell line, 0% HSA
Procedure: Cells were grown in a T175 culture flask placed at 37° C. to near confluence in medium (DMEM/10% FBS) and collected in 2 ml vials in cell culture medium containing 10% DMSO in a concentration of 10-50 million cells/ml. Each vial contained 1.8 ml cells. The vials were slowly frozen to −80° C. in isopropanol and then transferred in liquid nitrogen for storage. Prior to use, frozen cells were thawed quickly at 37° C. and washed (5 min at 900 rpm) with 20 ml cell buffer (1×HBSS; 20 mM HEPES; 0% or 0.1% HSA). Cells were resuspended in assay buffer (cell buffer plus 2 mM IBMX) and adjusted to a cell density of 1 million cells/ml. For measurement, 5 μl cells (final […]) and 5 μL of test compound were added to a 384-well plate, followed by incubation for 30 minutes at room temperature.
The CAMP content of cells was determined using a kit from Cisbio Corp. (cat. no. 62AM4PEC) based on HTRF (Homogenous Time Resolved Fluorescence). After addition of HTRF reagents diluted in lysis buffer (kit components), the plates were incubated for 1 h, followed by measurement of the fluorescence ratio at 665/620 nm. The percent activity value (E %) was calculated by setting 1000 nM of urocortin 2 (UCN2) as 100%. The in vitro potency of the compounds was quantified by determining the concentrations that caused 50% activation of maximal response (EC50).
Using the procedure described in Example 7, the activity of the compounds at the rat CRF2R α receptor was assessed. The A7R5 rat aortic smooth muscle cell line was used in this study.

[1] = 0% HSA, read-out: EC50 [nM], 0% HSA
[2] = 0.1% HSA, read-out: EC50 [nM], 0.1% HSA

SMILES	EC50 (human CRF2α receptor; [1])	EC50 (human CRF2α receptor; [2])	EC50 (rat CRF2R α receptor)
CC[C@H](C)[C@H](NC(C)=O)C(=O)N[C@H](C(=O)N[C@@H](CC(C)C)C(=O)N[C@@H](CO)C(=O)N[C@@H](CC(C)C)C(=O)N[C@@H](CC(=O)O)C(=O)N[C@@H](C(=O)N1CCC[C@H]1C(=O)N[C@H](C(=O)N[C@@H](CCCCN)C(=O)N[C@@H](CC(C)C)C(=O)N[C@@H](CCCCNC(=O)COCCOCCNC(=O)COCCOCCNC(=O)CC[C@H](NC(=O)CCCCCCCCCCCCCCCCC(=O)O)C(=O)O)C(=O)N[C@@H](CCC(N)=O)C(=O)N[C@H](C(=O)N[C@@H](CC(C)C)C(=O)N[C@@H](CC(C)C)C(=O)N[C@@H](CCC(=O)O)C(=O)N[C@@H](CCC(N)=O)C(=O)N[C@@H](CCC(=O)O)C(=O)N[C@@H](CCCNC(=N)N)C(=O)N[C@@H](CCC(N)=O)C(=O)N[C@@H](CCCCN)C(=O)NC(C)(C)C(=O)N[C@@H](CCC(N)=O)C(=O)N[C@@H](CCCNC(=N)N)C(=O)N[C@@H](CCC(=O)O)C(=O)N[C@@H](CCC(N)=O)C(=O)N[C@@H](C)C(=O)N[C@@H](CCC(=O)O)C(=O)N[C@@H](CCCCN)C(=O)N[C@@H](CC(N)=O)C(=O)N[C@@H](CCCCN)C(=O)N[C@@H](CCC(N)=O)C(=O)N[C@H](C(=O)N[C@@H](CC(C)C)C(=O)N[C@@H](CCC(=O)O)C(=O)N[C@@H](CCC(N)=O)C(=O)N[C@H](C(N)=O)C(C)C)[C@@H](C)CC)[C@@H](C)CC)[C@@H](C)CC)C(C)C)C(C)C [compound 158] (Ac-IVLSLD[dV]PIKLK([AEEA-AEEA-γGlu-C18 diacid])QILLEQERQK[Aib]QREQAEKNKQILEQV-NH2)	0.42 nM	5.63 nM	5.29 nM
CC[C@H](C)[C@H](NC(C)=O)C(=O)N[C@H](C(=O)N[C@@H](CC(C)C)C(=O)N[C@@H](CO)C(=O)N[C@@H](CC(C)C)C(=O)N[C@@H](CC(=O)O)C(=O)N[C@@H](C(=O)N1CCC[C@H]1C(=O)N[C@H](C(=O)N[C@@H](CCCCN)C(=O)N[C@@H](CC(C)C)C(=O)N[C@@H](CCCCNC(=O)COCCOCCNC(=O)COCCOCCNC(=O)CC[C@H](NC(=O)CCCCCCCCCCCCCCCCC(=O)O)C(=O)O)C(=O)N[C@@H](CCC(N)=O)C(=O)N[C@H](C(=O)N[C@@H](CC(C)C)C(=O)N[C@@H](CC(C)C)C(=O)N[C@@H](CCC(=O)O)C(=O)N[C@@H](CCC(N)=O)C(=O)N[C@@H](CCC(=O)O)C(=O)N[C@@H](CCCNC(=N)N)C(=O)N[C@@H](CCC(N)=O)C(=O)N[C@@H](CCC(=O)O)C(=O)NC(C)(C)C(=O)N[C@@H](CCC(N)=O)C(=O)N[C@@H](CCCNC(=N)N)C(=O)N[C@@H](CCC(=O)O)C(=O)N[C@@H](CCC(N)=O)C(=O)N[C@@H](C)C(=O)N[C@@H](CCC(=O)O)C(=O)N[C@@H](CCCCN)C(=O)N[C@@H](CC(N)=O)C(=O)N[C@@H](CCCCN)C(=O)N[C@@H](CCC(N)=O)C(=O)N[C@H](C(=O)N[C@@H](CC(C)C)C(=O)N[C@@H](CCC(=O)O)C(=O)N[C@@H](CCC(N)=O)C(=O)N[C@H](C(N)=O)C(C)C)[C@@H](C)CC)[C@@H](C)CC)[C@@H](C)CC)C(C)C)C(C)C [compound 159] (Ac-IVLSLD[dV]PIKLK([AEEA-AEEA-γGlu-C18 diacid])QILLEQERQE[Aib]QREQAEKNKQILEQV-NH2)	1.27 nM	27.4 nM	15.6 nM
CC[C@H](C)[C@H](N)C(=O)N[C@H](C(=O)N[C@@H](CC(C)C)C(=O)N[C@@H](CO)C(=O)N[C@@H](CC(C)C)C(=O)N[C@@H](CC(=O)O)C(=O)N[C@@H](C(=O)N1CCC[C@H]1C(=O)N[C@H](C(=O)N[C@@H](CCCCN)C(=O)N[C@@H](CC(C)C)C(=O)N[C@@H](CCCCNC(=O)COCCOCCNC(=O)COCCOCCNC(=O)CC[C@H](NC(=O)CCCCCCCCCCCCCCCCCCC(=O)O)C(=O)O)C(=O)N[C@@H](CCC(N)=O)C(=O)N[C@H](C(=O)N[C@@H](CC(C)C)C(=O)N[C@@H](CC(C)C)C(=O)N[C@@H](CCCCN)C(=O)N[C@@H](CCC(N)=O)C(=O)N[C@@H](CCC(=O)O)C(=O)N[C@@H](CCCNC(=N)N)C(=O)N[C@@H](CCC(N)=O)C(=O)N[C@@H](CCCCN)C(=O)NC(C)(C)C(=O)N[C@@H](CCC(N)=O)C(=O)N[C@@H](CCCNC(=N)N)C(=O)N[C@@H](CCC(=O)O)C(=O)N[C@@H](CCC(N)=O)C(=O)N[C@@H](C)C(=O)N[C@@H](CCC(=O)O)C(=O)N[C@@H](CCCCN)C(=O)N[C@@H](CC(N)=O)C(=O)N[C@@H](CCCCN)C(=O)N[C@@H](CCC(N)=O)C(=O)N[C@H](C(=O)N[C@@H](CC(C)C)C(=O)N[C@@H](C)C(=O)N[C@@H](CCC(N)=O)C(=O)N[C@H](C(N)=O)C(C)C)[C@@H](C)CC)[C@@H](C)CC)[C@@H](C)CC)C(C)C)C(C)C [compound 173] (H-IVLSLD[dV]PIKLK([AEEA-AEEA-γGlu-C20 diacid])QILLKQERQK[Aib]QREQAEKNKQILAQV-NH2; N-terminus assumed)	0.03 nM	3.49 nM	0.83 nM
CC[C@H](C)[C@H](N)C(=O)N[C@H](C(=O)N[C@@H](CC(C)C)C(=O)N[C@@H](CO)C(=O)N[C@@H](CC(C)C)C(=O)N[C@@H](CC(=O)O)C(=O)N[C@@H](C(=O)N1CCC[C@H]1C(=O)N[C@H](C(=O)N[C@@H](CCCCN)C(=O)N[C@@H](CC(C)C)C(=O)N[C@@H](CCCCNC(=O)COCCOCCNC(=O)COCCOCCNC(=O)CC[C@H](NC(=O)CC[C@H](NC(=O)CCCCCCCCCCCCCCCCC(=O)O)C(=O)O)C(=O)O)C(=O)N[C@@H](CCC(N)=O)C(=O)N[C@H](C(=O)N[C@@H](CC(C)C)C(=O)N[C@@H](CC(C)C)C(=O)N[C@@H](CCCCN)C(=O)N[C@@H](CCC(N)=O)C(=O)N[C@@H](C)C(=O)N[C@@H](CCCNC(=N)N)C(=O)N[C@@H](CCC(N)=O)C(=O)N[C@@H](CCCCN)C(=O)NC(C)(C)C(=O)N[C@@H](CCC(N)=O)C(=O)N[C@@H](CCCNC(=N)N)C(=O)N[C@@H](C)C(=O)N[C@@H](CCC(N)=O)C(=O)N[C@@H](C)C(=O)N[C@@H](CCC(=O)O)C(=O)N[C@@H](CCCCN)C(=O)N[C@@H](CC(N)=O)C(=O)N[C@@H](CCCCN)C(=O)N[C@@H](CCCNC(=N)N)C(=O)N[C@H](C(=O)N[C@@H](CC(C)C)C(=O)N[C@@H](CCC(=O)O)C(=O)N[C@@H](CCCNC(=N)N)C(=O)N[C@H](C(N)=O)C(C)C)[C@@H](C)CC)[C@@H](C)CC)[C@@H](C)CC)C(C)C)C(C)C [compound 174] (H-IVLSLD[dV]PIKLK([AEEA-AEEA-γGlu-γGlu-C18 diacid])QILLKQARQK[Aib]QRAQAEKNKRILERV-NH2; N-terminus assumed)	0.07 nM	0.88 nM	0.42 nM
